Experiment: xn = mol fraction of the nth substance listed
Details: Gas, Loschmidt cell combine with holographic interferometry

SMILES	binary diffusion coefficient (293.15 K, 100 kPa, x2 = 0.5)	binary diffusion coefficient (293.15 K, 200 kPa, x2 = 0.5)	binary diffusion coefficient (313.15 K, 100 kPa, x2 = 0.5)	binary diffusion coefficient (313.15 K, 200 kPa, x2 = 0.5)	binary diffusion coefficient (333.15 K, 200 kPa, x2 = 0.5)	binary diffusion coefficient (293.15 K, 100 kPa, x1 = 0.5)	binary diffusion coefficient (293.15 K, 200 kPa, x1 = 0.5)	binary diffusion coefficient (293.15 K, 500 kPa, x1 = 0.5)	binary diffusion coefficient (313.15 K, 200 kPa, x1 = 0.5)	binary diffusion coefficient (313.15 K, 500 kPa, x1 = 0.5)	binary diffusion coefficient (293.15 K, 500 kPa, x2 = 0.5)	binary diffusion coefficient (293.15 K, 1000 kPa, x2 = 0.5)	binary diffusion coefficient (313.15 K, 500 kPa, x2 = 0.5)	binary diffusion coefficient (313.15 K, 1000 kPa, x2 = 0.5)	binary diffusion coefficient (333.15 K, 500 kPa, x2 = 0.5)	binary diffusion coefficient (333.15 K, 1000 kPa, x2 = 0.5)	further results
[He] [helium] + CCC	3.9e-05 m2/s	1.95e-05 m2/s	4.36e-05 m2/s	2.18e-05 m2/s	2.4e-05 m2/s	–	–	–	–	–	–	–	–	–	–	–	–
[He] [helium] + N	–	–	–	–	–	7.36e-05 m2/s	3.7e-05 m2/s	1.46e-05 m2/s	4.1e-05 m2/s	1.65e-05 m2/s	–	–	–	–	–	–	binary diffusion coefficient (293.15 K, 800 kPa, x1 = 0.5): 8.96e-06 m2/s; binary diffusion coefficient (313.15 K, 800 kPa, x1 = 0.5): 1.02e-05 m2/s; binary diffusion coefficient (333.15 K, 800 kPa, x1 = 0.5): 1.13e-05 m2/s; binary diffusion coefficient (353.15 K, 800 kPa, x1 = 0.5): 1.26e-05 m2/s
[Kr] [krypton] + [He]	–	–	–	–	–	6.19e-05 m2/s	3.12e-05 m2/s	1.25e-05 m2/s	3.48e-05 m2/s	1.34e-05 m2/s	–	–	–	–	–	–	binary diffusion coefficient (293.15 K, 1000 kPa, x1 = 0.5): 6.18e-06 m2/s; binary diffusion coefficient (313.15 K, 100 kPa, x1 = 0.5): 7.04e-05 m2/s; binary diffusion coefficient (313.15 K, 1000 kPa, x1 = 0.5): 6.94e-06 m2/s; binary diffusion coefficient (333.15 K, 200 kPa, x1 = 0.5): 3.84e-05 m2/s; binary diffusion coefficient (333.15 K, 500 kPa, x1 = 0.5): 1.55e-05 m2/s; binary diffusion coefficient (333.15 K, 1000 kPa, x1 = 0.5): 7.7e-06 m2/s; binary diffusion coefficient (353.15 K, 200 kPa, x1 = 0.5): 4.25e-05 m2/s; binary diffusion coefficient (353.15 K, 500 kPa, x1 = 0.5): 1.71e-05 m2/s; binary diffusion coefficient (353.15 K, 1000 kPa, x1 = 0.5): 8.54e-06 m2/s
[N-]=[N+]=O [nitrous oxide] + N#N	1.53e-05 m2/s	7.9e-06 m2/s	1.76e-05 m2/s	8.98e-06 m2/s	–	–	–	–	–	–	3.14e-06 m2/s	1.56e-06 m2/s	3.55e-06 m2/s	1.77e-06 m2/s	4.28e-06 m2/s	1.98e-06 m2/s	binary diffusion coefficient (353.15 K, 1000 kPa, x2 = 0.5): 2.24e-06 m2/s
[Xe] [xenon] + [Ar]	3.12e-05 m2/s	1.56e-05 m2/s	3.5e-05 m2/s	1.75e-05 m2/s	1.94e-05 m2/s	–	–	–	–	–	6.29e-06 m2/s	3.12e-06 m2/s	7.02e-06 m2/s	3.48e-06 m2/s	7.76e-06 m2/s	3.88e-06 m2/s	binary diffusion coefficient (333.15 K, 100 kPa, x2 = 0.5): 3.88e-05 m2/s
